# Source: ChEMBL document CHEMBL5390225, “Discovery and structural optimization of a new series of N-acyl-2-aminobenzothiazole as inhibitors of Zika virus” (Bioorg Med Chem, 2023)
# Legend:
# Zika virus [1] = assay: (§1) Inhibition of Zika virus BeH823339 NS2B protease (49 to 95 residues) R96A mutant/NS3 protease (1 to 170 residues) R29G/ C80S/C143S mutant expressed in Escherichia coli BL21 (DE3) cells using Bz-Nle-Lys-Lys-Arg-AMC as a fluorogenic substrate at 25 uM preincubated with 0.2 nM enzyme for 10 mins by fluorescence-based analysis relative to control
# BHK-21 = assay: Cytotoxicity against golden hamster BHK21-RepZIKV_IRES-Neo cells assessed as reduction in cell viability measured after 72 hrs by MTT assay; assay type: toxicity, cell-based, Mesocricetus auratus; conditions: bhk-21, 72 h
# [2] = as §1, with “substrate” for “substrate at 25 uM”, “with” for “with 0.2 nM”, “analysis” for “analysis relative to control”
# Zika virus [3] = assay: as §1, with “100” for “25”, “uM” for “uM preincubated with 0.2 nM enzyme for 10 mins”
# Zika virus [4] = assay: Antiviral activity against Zika virus PE243 infected in African green monkey Vero E6 cells assessed as inhibition of viral replication incubated for 72 hrs by immunofluorescence analysis; assay type: functional, organism-based; conditions: PE243, Vero C1008, 72 h
# Zika virus [5] = assay: Antiviral activity against Zika virus PE243 infected in African green monkey Vero E6 cells assessed as inhibition of viral replication at 10 uM incubated for 72 hrs by immunofluorescence analysis; assay type: functional; conditions: PE243, Vero C1008
# [6] = Cytotoxicity against African green monkey Vero E6 cells assessed as cell viability at 10 uM measured after 72 hrs by MTT assay relative to control; assay type: toxicity, cell-based, Vero C1008; conditions: chlorocebus sabaeus, read-out: Activity
# [7] = Cytotoxicity against African green monkey Vero E6 cells assessed as reduction in cell viability measured after 72 hrs by MTT assay; assay type: toxicity, cell-based, Vero C1008; conditions: chlorocebus sabaeus
# Zika virus [8] = assay: as §1, with “2” for “0.2”
# Zika virus [9] = assay: Antiviral activity against Zika virus PE243 infected in African green monkey Vero E6 cells assessed as inhibition of viral replication at 2 uM incubated for 72 hrs by immunofluorescence analysis; assay type: functional; conditions: PE243, Vero C1008
# [10] = Cytotoxicity against African green monkey Vero E6 cells assessed as cell viability at 2 uM measured after 72 hrs by MTT assay relative to control; assay type: toxicity, cell-based, Vero C1008; conditions: chlorocebus sabaeus, read-out: Activity
# Zika virus [11] = assay: Antiviral activity against Zika virus infected in golden hamster BHK21-RepZIKV_IRES-Neo cells assessed as inhibition of viral replication by measuring reduction in renilla luciferase expression at 10 uM measured after 72 hrs by luciferase reporter gene assay relative to control; assay type: functional, Mesocricetus auratus; conditions: BHK-21
# Zika virus [12] = assay: as §1, with “100” for “25”, “with” for “with 0.2 nM”, “mins in presence of 0.001% TritonX-100” for “mins”, “analysis” for “analysis relative to control”
# Zika virus [13] = assay: as §1, with “with” for “with 0.2 nM”, “mins in presence of BSA” for “mins”
# Zika virus [14] = assay: as §1, with “100” for “25”, “with” for “with 0.2 nM”
# [15] = Selectivity index, ratio of CC50 for cytotoxicity against African green monkey Vero E6 cells to EC50 for antiviral activity against Zika virus PE243 infected in African green monkey Vero E6 cells; assay type: toxicity, cell-based, Vero C1008; conditions: read-out: Ratio CC50/EC50
# [16] = biological target: Cruzipain (Trypanosoma cruzi) (UniProt P25779); assay: Inhibition of recombinant Trypanosoma cruzi Cruzain using Z-Phe-Arg-AMC as fluorogenic substrate at 25 uM preincubated with enzyme for 10 mins by fluorescence-based analysis relative to control
# Sequence of Cruzipain (Trypanosoma cruzi) (P25779 123-467 limits assumed): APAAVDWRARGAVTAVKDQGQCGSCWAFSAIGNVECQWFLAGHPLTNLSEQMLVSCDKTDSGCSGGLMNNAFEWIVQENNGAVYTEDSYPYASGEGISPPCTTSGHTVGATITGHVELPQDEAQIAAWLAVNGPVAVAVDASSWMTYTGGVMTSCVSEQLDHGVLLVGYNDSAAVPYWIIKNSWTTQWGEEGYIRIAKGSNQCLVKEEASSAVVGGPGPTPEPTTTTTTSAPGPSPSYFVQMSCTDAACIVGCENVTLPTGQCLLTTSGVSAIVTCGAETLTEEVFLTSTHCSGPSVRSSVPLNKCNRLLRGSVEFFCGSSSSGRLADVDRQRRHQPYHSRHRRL
# [17] = biological target: Cruzipain (Trypanosoma cruzi) (UniProt P25779); assay: Inhibition of recombinant Trypanosoma cruzi Cruzain using Z-Phe-Arg-AMC as fluorogenic substrate at 12.5 uM preincubated with enzyme for 10 mins by fluorescence-based analysis relative to control
# Zika virus [18] = assay: as §1, with “Non-competitive inhibition” for “Inhibition”, “using 5.5 to 88 uM of” for “using”, “compound concentration close to IC50” for “25 uM”, “with” for “with 0.2 nM”
# Zika virus [19] = assay: as §1, with “12.5” for “25”
# Zika virus [20] = assay: as §1, with “10” for “25”, “with” for “with 0.2 nM”, “mins in presence of BSA” for “mins”
# Zika virus [21] = assay: as §1, with “12.5” for “25”, “2” for “0.2”
# Zika virus [22] = assay: as §1, with “50” for “25”, “with” for “with 0.2 nM”, “mins in presence of BSA” for “mins”
# Zika virus [23] = assay: as §1, with “50” for “25”
# [24] = biological target: Cruzipain (Trypanosoma cruzi) (UniProt P25779); assay: Inhibition of recombinant Trypanosoma cruzi Cruzain using Z-Phe-Arg-AMC as fluorogenic substrate at 50 uM preincubated with enzyme for 10 mins by fluorescence-based analysis relative to control
# Zika virus [25] = assay: as §1, with “50” for “25”, “2” for “0.2”
SMILES,Activity (BHK-21),inhibition (Zika virus [3]),EC50 (Zika virus [4]),inhibition at 10 µM (Zika virus [5]),"viability at 72 h, 10 µM [6]",CC50 at 72 h [7],inhibition at 2 µM (Zika virus [9]),"viability at 72 h, 2 µM [10]",inhibition at 10 µM (Zika virus [11]),inhibition (Zika virus [14]),selectivity ratio [15],further results
COc1ccc(S(=O)(=O)Nc2ccccc2C(=O)Nc2nccs2)cc1,Non-Toxic,62%,5 µM,100%,34.8%,38.7 µM,68.6%,36.2%,75.5%,100%,7.7,inhibition (Zika virus [1]): 43%; IC50 [2]: 26 µM; inhibition (Zika virus [8]): 20%; inhibition (Zika virus [12]): 24%; inhibition (Zika virus [13]): 5%; inhibition [16]: 20%
O=C(Nc1nc2ccccc2s1)c1ccc(NS(=O)(=O)c2ccc(Br)cc2)cc1,Non-Toxic,7%,5 µM,75.7%,22.7%,45.8 µM,69.1%,97%,60.4%,4%,9.2,–
O=C(Nc1nc2ccccc2s1)c1ccc(NS(=O)(=O)c2ccc(F)cc2)cc1,–,22%,–,54.7%,40.4%,–,15.3%,93.6%,–,27%,–,–
O=C(Nc1nc2ccccc2s1)c1ccc(NS(=O)(=O)c2ccccc2)cc1,–,20%,–,82.6%,17.7%,–,44.7%,85.9%,–,28%,–,–
COc1ccc(OC)c(S(=O)(=O)NCC(=O)Nc2nc3ccccc3s2)c1,–,51%,–,7.9%,102%,–,8.3%,112%,–,93%,–,inhibition (Zika virus [1]): 28%; IC50 [2]: 24 µM; inhibition (Zika virus [8]): 12%; inhibition (Zika virus [12]): 12%; inhibition (Zika virus [13]): 11%; inhibition [16]: 3%
CC(=O)Nc1ccc(S(=O)(=O)Nc2ccc(C(=O)Nc3nc4ccccc4s3)cc2)cc1,–,44%,–,25.8%,72.3%,–,0.9%,98.1%,–,57%,–,–
COc1cc(Cl)ccc1S(=O)(=O)Nc1ccc(C(=O)Nc2nc3ccccc3s2)cc1,Non-Toxic,3%,10.7 µM,100%,17.5%,23.9 µM,64.5%,44%,3.4%,5%,2.2,–
COc1ccc(S(=O)(=O)Nc2cccc(C(=O)Nc3nc4ccccc4s3)c2)cc1,Non-Toxic,2%,5.1 µM,87.5%,17.7%,128 µM,72.9%,79.3%,40.3%,11%,25.1,–
O=C(Nc1nc2ccccc2s1)c1ccc(NS(=O)(=O)c2ccc([N+](=O)[O-])cc2)cc1,Non-Toxic,30%,7.5 µM,72.1%,99.7%,30.2 µM,0%,101%,23.4%,39%,4,–
O=C(Nc1nc2ccccc2s1)c1ccc(NC(=S)Nc2ccccc2)cc1,–,46%,–,73.6%,29%,–,9.4%,96%,–,99%,–,inhibition [17]: 72%; IC50 [2]: 8 µM; inhibition (Zika virus [18]): 25%; inhibition (Zika virus [12]): 46%; inhibition (Zika virus [19]): 15%; inhibition (Zika virus [20]): 12%; inhibition (Zika virus [21]): 9%
CC(C)(C)OC(=O)NCC(=O)Nc1nc2ccccc2s1,–,–,17 µM,56.5%,60.1%,79 µM,18.9%,104%,–,–,4.7,–
COc1ccc(S(=O)(=O)Nc2ccccc2C(=O)Nc2nc3ccccc3[nH]2)cc1,Non-Toxic,62%,33.9 µM,98.8%,19.9%,56.5 µM,97.6%,33.5%,46.4%,100%,1.7,inhibition [17]: 58%; IC50 [2]: 8 µM; inhibition (Zika virus [12]): 42%; inhibition (Zika virus [19]): 62%; inhibition (Zika virus [20]): 8%; inhibition (Zika virus [21]): 16%
COc1ccc(S(=O)(=O)Nc2ccccc2C(=O)Nc2nc3ccccc3s2)cc1,–,92%,–,1%,104%,–,5.4%,98.5%,–,100%,–,IC50 [2]: 24 µM; inhibition (Zika virus [22]): 20%; inhibition (Zika virus [23]): 39%; inhibition [24]: 96%; inhibition (Zika virus [12]): 53%; inhibition (Zika virus [25]): 25%
O=C(CNS(=O)(=O)c1ccc(F)cc1)Nc1nc2ccccc2s1,–,–,–,65.1%,26.5%,–,15.9%,95.6%,–,43%,–,–
COc1ccc(S(=O)(=O)Nc2ccc(C(=O)Nc3nc4ccccc4[nH]3)cc2)cc1,–,–,–,0%,25.9%,–,0%,93.1%,–,43%,–,–
Cc1ccc(S(=O)(=O)Nc2ccc(C(=O)Nc3nc4ccccc4s3)cc2)cc1,–,20%,–,83%,19.5%,–,5.5%,70.6%,–,28%,–,–
Cc1ccc(S(=O)(=O)NCC(=O)Nc2nc3ccccc3s2)cc1,–,–,–,27.9%,74.4%,–,6.8%,101%,–,21%,–,–
COc1ccc(S(=O)(=O)NCC(=O)Nc2nc3ccccc3s2)cc1,–,–,–,0%,82.7%,–,0%,104%,–,62%,–,–
COc1ccc(S(=O)(=O)Nc2ccc(C(=O)Nc3nccs3)cc2)cc1,–,–,–,16.1%,98.9%,–,4.9%,95.7%,–,7%,–,–
